The values that follow come from a melting point compilation (Tetko et al.; mined from patent text by program, amines drawn as free bases though some values may be those of a salt).

One may read the melting point as the temperature of the solid-liquid transition.

Each structure is given as a SMILES string. Some results are limits rather than exact numbers.

Regarding `O=Cc1ccc(OC2CCN(C(=O)OCC3c4ccccc4-c4ccccc43)CC2)cc1`, the melting point lay in the range of 106 to 108 °C. `CCCCC(NC(=O)OCc1ccccc1)C(=O)Nc1n[nH]c(=S)s1` (stereo not given): the melting point lay in the range of 169 to 171 °C. The result for `Cc1ccc(Cn2nnc(C(N)=O)c2N)cc1C(Cl)=C(Cl)Cl` reads 196 to 197 °C. In the case of `Cn1c(C(F)(F)F)cc(=O)n(-c2cc(OC(=O)CCl)c(Cl)cc2F)c1=O`, the melting point is 89 to 92 °C.

With `CCCCCN1Cc2cccc(Cl)c2S1(=O)=O`, the melting point fell in the range of 46 to 48 °C. In turn, `O=C(CC1CCN(CCn2c(=O)[nH]c3ccccc32)CC1)c1ccc(F)cc1` yielded a melting point of 181 °C.

In the case of `Fc1ccc2c(CCCC3CNCc4c3[nH]c3cnc5cc(Cl)ccc5c43)noc2c1` (stereo not given), the melting point was 221 to 222 °C. The result for `NC1(C(=O)NOCc2ccccc2)CCCC1` reads 94 to 96 °C; that for `COc1ccc(NC(=O)C2=C(O)c3ccccc3S(=O)(=O)N2C)ccc1=O`, 215 to 218 °C. The result for `CCCCN(CCCC)CCCCCCOc1ccc([C@H]2c3ccc(OCc4ccccc4)cc3OC[C@H]2c2ccccc2)cc1` (racemic) reads 72 to 73.5 °C. The molecule `CCOC(=O)C(C)(C)OC(=O)c1cc([N+](=O)[O-])ccc1Cl` showed a melting point of 64 to 66 °C. In the case of `CCc1c(Br)c2ccccn2c1C(=O)c1ccc(O)cc1` it was 160 to 162 °C; in that of `COc1cc([N+](=O)[O-])c(F)cc1Br`, 74 to 76 °C; in that of `O=C(Nc1ccc(-n2nc(C(F)(F)F)cc2C(F)(F)F)cc1)c1ccccc1`, 177 to 178 °C. In the case of `CCCN1CC(c2ccc(F)cc2)=C(c2ccc(S(C)(=O)=O)cc2)C1=O` it was 150 to 152 °C; in that of `CCc1noc(-c2ncc3[nH]c4cccc(CN5CCOCC5)c4c3c2COC)n1`, 161 to 163 °C; in that of `CC(=NOCCOc1ccc(CC2SC(=O)NC2=O)cc1)c1ccc(-c2ccccc2)nc1` (stereo not given), 186 to 187 °C.

Regarding `Cc1noc(NS(=O)(=O)c2ccccc2-c2ccc(-c3ncco3)cc2CC(=O)NC(C)(C)C)c1C`, the melting point fell in the range of 117 to 123 °C. For the molecule `CN1CCN(c2cccc3c2C[C@H](NC(=O)c2ccc(N4CCNCC4)cc2)CO3)CC1`, the melting point is greater than 102 °C. `O=C(Cn1ncc(-c2ccccc2)c1-c1ccccc1)NCCCO`: the melting point was in the range of 138 to 139 °C.

`CCOC(=O)c1ccc(C(=O)C2=NS(=O)(=O)c3ccccc3C2=O)cc1` registered a melting point of 161 °C. In the case of `CC(C)N1CC(CCN2CCN(c3ccccc3)CC2)OC1=O` (stereo not given) it was 74 to 75 °C. In the case of `COC(=O)CSSc1cc(Oc2ccc(C(F)(F)F)cc2Cl)ccc1[N+](=O)[O-]` it was 66 to 68 °C. In the case of `CC1(Cc2ccc(O)cc2)OCCO1` it was 61 to 64 °C; in that of `CCCN(CCC)CCCOc1ccc(-c2noc(-c3ccccc3)n2)cc1`, 55 to 57 °C; in that of `O=CC(=O)c1ccccc1`, 120 to 122 °C.

For `O=C(O)c1cc2ccsc2cn1`, the melting point was 246 °C. `Cc1cccc(-c2nc3ccccn3c2-c2ccnc(-c3ccc(OC(F)(F)F)cc3)c2)n1` displayed a melting point of 120 °C.

Consider `CCCCc1oc2ccc(-c3nc(C)no3)cc2c1C(=O)c1ccc(OCCCBr)cc1`, for which the melting point was 85 to 87 °C. The result for `COc1ccc(S(=O)(=O)CC(=O)C(C)C)cc1` reads 48 to 49.5 °C. As for `O=C1CC(O)c2c1cc[nH]c2=O` (stereo not given), the melting point was determined as 200 °C. With `C#CCOc1cc(NC(=O)C2NCC3CC32)c(F)cc1Cl` (stereo not given), the melting point was in the range of 113 to 115 °C. For `CC(C)N(c1nc(N)nc(-c2cc(Cl)ccc2Cl)n1)C(C)C`, the melting point lay within 158 to 159 °C.

`COc1ccc(CC2NCCCC2C(C)O)cc1` (stereo not given): the melting point was greater than 300 °C. In the case of `CC(C)NC1=NS(=O)(=O)c2cc(Br)ccc2N1` it was greater than 220 °C. Regarding `CC(C)CCS(=O)(=O)NC(=O)/C=C/c1cc(C2CC2)nn1Cc1ccc(C(F)(F)F)cc1Cl`, the melting point was in the range of 145 to 147 °C. `Cc1noc(C)c1-c1cn(Cc2ccccc2)c(=O)c2ccncc12` gave a melting point of 159 to 161 °C. In the case of `CSc1nc(N)n2nc(-c3ccco3)nc2n1` it was 238 to 240 °C; in that of `NS(=O)(=O)c1ccc(-c2noc(-c3cnn4c(C(F)(F)F)cc(-c5ccc(C(F)(F)F)c(OCC(F)(F)F)c5)nc34)n2)s1`, 255 °C; in that of `CSc1ccn2nc(S(=O)(=O)Nc3c(Cl)cccc3Cl)nc2n1`, 239 to 243 °C.

For `COc1ccccc1CCNC(=S)Nc1nc2ccccc2[nH]1`, the melting point is 176 to 184 °C. In the case of `Cc1ccc(Oc2ccc(C(=O)N=C(N)N)cc2S(C)(=O)=O)cn1` it was 197 to 199 °C; in that of `N#Cc1ccc(NC(=O)c2cccc(OCc3ccc(F)c(F)c3)c2)cc1`, 173 to 174 °C. In the case of `CCC(CCCc1cc(OC)c(OC)c(OC)c1)(c1cccs1)N(C)C` (stereo not given) it was 62 to 63 °C; in that of `CCc1cccc2c3c([nH]c12)C(CC)(CC)OCC3`, 133 to 134 °C. In the case of `COc1ccccc1Oc1c(NS(=O)(=O)c2c(C)noc2C)nc(-c2ncccn2)nc1OCCOC(=O)Nc1ccccn1` it was 217 to 218 °C; in that of `O=C(Cl)N1CCN(c2ccccc2)CC1`, 79.5 °C; in that of `CSC1Oc2cccc3cccc(c23)C1=O` (stereo not given), 89 to 91 °C. For the molecule `CC1Cc2ccc(C#N)cc2C1=O` (stereo not given), the melting point was 95 °C.

Molecule `O=C(O)CCCc1cc2nc(Cl)ccc2n1S(=O)(=O)c1cccc(Cl)c1` came in with a melting point of 174 °C. In the case of `O=C1O[C@@H](Cn2ccnn2)CN1c1ccc(-c2ccc(C3=NOC(CNCCc4ccncc4)C3)nc2)c(F)c1` (stereo not given in full) it was 181 °C; in that of `O=S(=O)(CCCCCl)c1ccccc1`, 55 to 58 °C; in that of `Cc1cccc(Nc2c(N)cc(C(=O)O)cc2S(N)(=O)=O)c1`, 280 to 282 °C. Molecule `Cc1nc(N2CCN(CC(C)C)C2=O)sc1C(=O)NCc1cocn1` displayed a melting point of 115 to 118 °C. The result for `CCCCCCCNC(=O)Nc1ccc(N(C)C)cc1C(=O)NC(C)(C)C1CCN(C(c2ccccc2)c2ccccc2)CC1` reads 190 °C; that for `CN1CCC(=C2c3ccccc3C=Cc3ccc(I)cc32)CC1`, 166 to 170 °C.

`COc1cc(OC)c(F)c(NCc2cnc(SC)nc2NC2CC2)c1F` registered a melting point of 48 to 50 °C. In the case of `CS(=O)(=O)c1ccc(-c2cnn(-c3ccc(Cl)cc3F)c(=O)c2-c2ccc(F)cc2)cc1` it was 250 to 260 °C; in that of `Nc1nc(OCc2ccccc2)c2ncn(CCC3COP(=O)(OCc4ccccc4)OC3)c2n1` (stereo not given), 162 to 166 °C. As for `N#Cc1cnc2ccccc2c1Nc1ccc(Cl)cc1Cl`, the melting point lay within 260 to 262 °C. `CC(=O)Nc1nc(-c2ccc(F)cc2)c(-c2ccc(=O)n(C(C)C)n2)s1`: the melting point was 236 to 238 °C.

`CN1CCC(c2c[nH]c3ccc(Sc4ccccc4)cc23)CC1`: the melting point is 147 to 150 °C. Molecule `CC1=NN=C(c2ccc([N+](=O)[O-])c(C)c2)c2cc3c(cc2C1)OCO3` had a melting point of 189 to 194 °C. In the case of `C=CCSc1ccc(Oc2ccccc2C)nn1` it was 78 to 80 °C. In turn, `Cc1oc(-c2ccccc2)nc1COc1ccc(COc2cccnc2CO)cc1` gave a melting point of 118 to 119 °C. As for `CCOC(=O)c1cnc2sc3c(n12)CCC3`, the melting point fell in the range of 101 to 102 °C. The molecule `CN(C)c1nc(N(C)C)nc(N(C)Cc2ccc(O)cc2)n1` registered a melting point of 163 to 164 °C. For `CCCCCCCCCCCCCCCCSCC(CO)n1nnnc1C` (stereo not given), the melting point lay in the range of 77 to 78 °C. Turning to `C#CCN(C(=O)C(Cl)Cl)C(C)C`, the melting point was in the range of 58 to 59 °C. As for `CCNn1cc(C(=O)O)c(=O)c2cc(F)c(N3CCNCC3)cc21`, the melting point lay within 289 to 291 °C. In the case of `CCCSc1ccc(N)c([N+](=O)[O-])c1` it was 36.5 to 38 °C; in that of `COc1ccc2c(c1O)CN(C)C(=O)C2c1cc(OC)c(OC)c(OC)c1` (single isomer, unassigned; (+)), 193 to 196 °C; in that of `Cn1c(Cl)c(C=O)c2cccc(Cl)c21`, 185 to 187 °C. The result for `CCOC(=O)c1cc2cc(OC)c(OC)cc2s1` reads 84 to 85 °C; that for `CC1(C(=O)O)CCc2c(C(=O)c3ccc(Cl)cc3)cccc21` (stereo not given), 146 to 150 °C; that for `Cc1noc(NS(=O)(=O)c2ccccc2-c2cccs2)c1C`, 112 to 115 °C. In the case of `CC#CCOc1ccc(S(=O)(=O)NC(C(=O)NO)c2ccc(OCCN3CCOCC3)cc2)cc1` (stereo not given) it was 80 to 86 °C.

`NC1=NN(c2nc3ccccc3s2)C(c2ccccc2)C1` (stereo not given): the melting point lay within 270 to 272 °C. `O=S(=O)(Cc1noc(-c2ccccc2)n1)c1ccc(CCNCC(O)c2ccc(OC(F)(F)F)cc2)cc1` (stereo not given) registered a melting point of 125 to 127 °C. Take `CO[C@]1(c2csc(Sc3ccc(/C(C)=N/O)cc3)c2)CCO[C@@H]1C` (racemic): the melting point fell in the range of 89 to 90 °C. In the case of `CCCCCc1cc2c(cc1/C=C/C=C/C(C)=C/C(=O)O)C(C)(C)CCC2(C)C` it was 164 to 166 °C. `O=C(Nc1nc(/C=C/c2ccc([N+](=O)[O-])cc2)cs1)c1ccccc1`: the melting point is 224 to 225 °C. In the case of `CC(C)(C(CC(=O)c1ccccc1)c1cccnc1)[N+](=O)[O-]` (stereo not given) it was 134 to 135 °C. In the case of `Cc1ccc2c(c1)[nH]c(=O)n2CCCO` it was 114 °C; in that of `C1=C(c2c[nH]c3ccccc23)CCN(CC2CCc3ccccc32)C1` (stereo not given), 168 to 170 °C.

Molecule `CCCC(=O)c1cnc2c(OC)cccc2c1Nc1ccc(OC(C)=O)cc1C` yielded a melting point of 167 to 169 °C. For the molecule `CCCc1c(C(=O)O)c(C(F)F)nc(C(F)(F)F)c1C(=O)O`, the melting point was determined as 236 °C. Turning to `Cc1ccc(C=C2C=C(C(C)(C)C)C=C(C(C)(C)C)C2=O)cc1C`, the melting point fell in the range of 214 to 217 °C. Molecule `CCN1c2cc(N)ccc2N(C)C(=O)c2cccnc21` had a melting point of 193 to 195 °C. In turn, `Nc1cc(OCCO)ncn1` showed a melting point of 133 to 137 °C.
